Experiments:
[1] = target: Vascular endothelial growth factor receptor 2 (Homo sapiens, UniProt P35968); assay: Inhibition of VEGFR-2 (unknown origin) using poly (Glu, Tyr) 4:1 as substrate after 1 hr by ELISA
[2] = target: Epidermal growth factor receptor (Homo sapiens, UniProt P00533); assay: Inhibition of EGFR (unknown origin) using poly (Glu, Tyr) 4:1 as substrate after 1 hr by ELISA
[3] = cells; conditions: Homo sapiens, HeLa, 72 h
Description: Antiproliferative activity against human HeLa cells after 72 hrs by Sulforhodamine B-stain assay

Sequence of Epidermal growth factor receptor (P00533 whole entry): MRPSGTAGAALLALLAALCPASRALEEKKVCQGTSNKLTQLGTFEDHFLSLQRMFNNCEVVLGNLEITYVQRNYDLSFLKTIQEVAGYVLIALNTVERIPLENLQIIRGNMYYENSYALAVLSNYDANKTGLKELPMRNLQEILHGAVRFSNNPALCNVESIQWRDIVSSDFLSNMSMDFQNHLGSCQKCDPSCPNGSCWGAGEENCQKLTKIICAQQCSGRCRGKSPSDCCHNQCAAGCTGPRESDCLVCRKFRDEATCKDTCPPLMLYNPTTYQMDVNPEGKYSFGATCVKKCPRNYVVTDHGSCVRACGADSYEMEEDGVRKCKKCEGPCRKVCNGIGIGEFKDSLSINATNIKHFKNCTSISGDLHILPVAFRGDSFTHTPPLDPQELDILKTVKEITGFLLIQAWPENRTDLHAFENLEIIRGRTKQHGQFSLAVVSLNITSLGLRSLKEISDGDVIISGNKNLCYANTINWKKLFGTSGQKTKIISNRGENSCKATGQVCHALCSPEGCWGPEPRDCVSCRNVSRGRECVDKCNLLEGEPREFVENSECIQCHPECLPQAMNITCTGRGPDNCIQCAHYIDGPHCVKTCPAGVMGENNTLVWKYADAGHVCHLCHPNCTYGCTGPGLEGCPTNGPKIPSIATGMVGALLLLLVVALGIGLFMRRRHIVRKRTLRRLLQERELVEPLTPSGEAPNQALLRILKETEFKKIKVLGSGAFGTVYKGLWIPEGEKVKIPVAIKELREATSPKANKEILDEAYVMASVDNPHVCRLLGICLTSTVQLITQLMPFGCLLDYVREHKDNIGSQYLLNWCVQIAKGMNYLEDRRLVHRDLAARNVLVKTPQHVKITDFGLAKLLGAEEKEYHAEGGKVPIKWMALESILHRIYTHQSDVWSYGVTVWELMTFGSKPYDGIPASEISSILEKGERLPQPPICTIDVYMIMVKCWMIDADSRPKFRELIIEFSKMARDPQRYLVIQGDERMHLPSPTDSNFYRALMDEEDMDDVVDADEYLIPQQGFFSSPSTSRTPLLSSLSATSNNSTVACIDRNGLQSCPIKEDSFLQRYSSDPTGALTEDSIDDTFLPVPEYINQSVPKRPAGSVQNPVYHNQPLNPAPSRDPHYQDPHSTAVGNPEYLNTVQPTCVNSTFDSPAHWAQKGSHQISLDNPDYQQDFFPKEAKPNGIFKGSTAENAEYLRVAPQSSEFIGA
Sequence of Vascular endothelial growth factor receptor 2 (P35968 whole entry): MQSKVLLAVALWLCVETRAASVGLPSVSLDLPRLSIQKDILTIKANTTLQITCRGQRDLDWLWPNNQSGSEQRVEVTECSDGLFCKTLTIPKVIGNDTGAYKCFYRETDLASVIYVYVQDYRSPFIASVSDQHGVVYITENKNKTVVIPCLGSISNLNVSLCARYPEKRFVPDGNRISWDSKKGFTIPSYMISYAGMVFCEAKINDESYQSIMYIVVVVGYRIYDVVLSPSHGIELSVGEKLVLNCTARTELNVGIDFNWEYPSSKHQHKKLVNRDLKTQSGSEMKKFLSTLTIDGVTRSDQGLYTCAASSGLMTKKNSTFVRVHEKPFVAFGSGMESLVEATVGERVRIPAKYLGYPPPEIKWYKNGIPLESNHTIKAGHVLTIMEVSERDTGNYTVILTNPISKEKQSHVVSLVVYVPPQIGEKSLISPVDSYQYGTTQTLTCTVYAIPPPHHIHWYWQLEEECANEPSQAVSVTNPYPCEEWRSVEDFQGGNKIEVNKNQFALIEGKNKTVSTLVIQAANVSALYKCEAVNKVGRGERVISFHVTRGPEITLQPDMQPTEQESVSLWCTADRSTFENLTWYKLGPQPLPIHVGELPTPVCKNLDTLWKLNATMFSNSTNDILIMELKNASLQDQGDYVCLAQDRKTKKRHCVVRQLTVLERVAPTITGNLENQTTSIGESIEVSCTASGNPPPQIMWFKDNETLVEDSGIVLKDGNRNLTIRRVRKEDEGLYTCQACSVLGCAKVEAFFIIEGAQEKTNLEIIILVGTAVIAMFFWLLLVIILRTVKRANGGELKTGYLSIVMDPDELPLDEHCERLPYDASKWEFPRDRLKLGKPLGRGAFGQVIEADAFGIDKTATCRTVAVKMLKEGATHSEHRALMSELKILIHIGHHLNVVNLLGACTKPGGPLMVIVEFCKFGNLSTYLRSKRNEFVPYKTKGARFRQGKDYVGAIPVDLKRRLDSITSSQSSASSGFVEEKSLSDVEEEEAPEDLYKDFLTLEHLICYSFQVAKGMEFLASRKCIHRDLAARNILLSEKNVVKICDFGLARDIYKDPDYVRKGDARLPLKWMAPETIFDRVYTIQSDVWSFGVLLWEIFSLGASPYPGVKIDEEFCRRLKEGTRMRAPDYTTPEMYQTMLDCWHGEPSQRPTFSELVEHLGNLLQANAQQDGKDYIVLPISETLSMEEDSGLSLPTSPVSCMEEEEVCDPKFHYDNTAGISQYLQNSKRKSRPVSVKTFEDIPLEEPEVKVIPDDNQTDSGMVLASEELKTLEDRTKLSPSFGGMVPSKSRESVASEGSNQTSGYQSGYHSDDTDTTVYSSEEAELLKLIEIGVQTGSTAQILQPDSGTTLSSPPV

| Structure (SMILES) | IC50 [1] | IC50 [2] | IC50 [3] |
| --- | --- | --- | --- |
| O=S(=O)(Nc1nccs1)c1ccc(Nc2nncc3ccccc23)cc1 | 8.6 nM | 88 nM | 15 nM |
| Cc1cc(C)nc(NS(=O)(=O)c2ccc(Nc3nncc4ccccc34)cc2)n1 | 0.77 nM | 6.7 nM | 3.5 nM |
| O=C1CS/C(=N/Nc2nncc3ccccc23)N1c1ccccc1 | 3.5 nM | 45 nM | 56 nM |
| COc1ccc(/C=C/C(=N/Nc2nncc3ccccc23)c2ccc(Cl)cc2)cc1 | 0.41 nM | 5.4 nM | 1.2 nM |
| CCN=C(S)NNc1nncc2ccccc12 | 7.3 nM | 76 nM | 48 nM |
| Clc1ccc(C(/C=C/c2ccccc2)=N\Nc2nncc3ccccc23)cc1 | 0.69 nM | 6.3 nM | 3.3 nM |
| S=C(NNc1nncc2ccccc12)Nc1ccccc1 | 6.2 nM | 65 nM | 39 nM |
| COc1ccc(N2C(=O)CS/C2=N/Nc2nncc3ccccc23)cc1 | 2.4 nM | 36 nM | 34 nM |
| CCCCN1C(=O)CS/C1=N/Nc1nncc2ccccc12 | 1.2 nM | 23 nM | 22 nM |
| S=C(NNc1nncc2ccccc12)Nc1ccc(Cl)cc1 | 6.1 nM | 64 nM | 20 nM |
| NC(=S)NNc1nncc2ccccc12 | 7.5 nM | 77 nM | 37 nM |
| Oc1cc(O)c2cc(O)c(-c3cc(O)c(O)c(O)c3)[o+]c2c1 [DELPHINIDIN CHLORIDE] | 5.09 nM | 6.27 nM | – |
| CCOC(=O)c1ccc(Nc2nncc3ccccc23)cc1 | 0.54 nM | 4.4 nM | 2.7 nM |
| C(=C\c1ccccc1)/C(=N/Nc1nncc2ccccc12)c1ccccc1 | 0.42 nM | 5.6 nM | 1.4 nM |
| CCCCNC(=S)NNc1nncc2ccccc12 | 4.5 nM | 52 nM | 49 nM |
| O=S(=O)(Nc1ccccn1)c1ccc(Nc2nncc3ccccc23)cc1 | 7.8 nM | 84 nM | 26 nM |
| COc1ccc(NC(=S)NNc2nncc3ccccc23)cc1 | 5.7 nM | 53 nM | 38 nM |
| O=S(=O)(Nc1ncccn1)c1ccc(Nc2nncc3ccccc23)cc1 | 8.5 nM | 86 nM | 14 nM |
| NS(=O)(=O)c1ccc(Nc2nncc3ccccc23)cc1 | 9.8 nM | 140 nM | 12 nM |
| O=C(O)c1ccc(Nc2nncc3ccccc23)cc1 | 0.68 nM | 6.2 nM | 3.92 nM |
| CCN1C(=O)CS/C1=N/Nc1nncc2ccccc12 | 3.6 nM | 47 nM | 65 nM |
| Cc1cc(NS(=O)(=O)c2ccc(Nc3nncc4ccccc34)cc2)no1 | 9.7 nM | 130 nM | 13 nM |
| Fc1ccc(Nc2nncc3ccccc23)cc1 | 0.67 nM | 6 nM | 2.8 nM |
| O=C1CS/C(=N/Nc2nncc3ccccc23)N1 | 4.4 nM | 51 nM | 57 nM |
| N#Cc1ccc(Nc2nncc3ccccc23)cc1 | 0.43 nM | 4.1 nM | 1.5 nM |
| Fc1ccc(/C=C/C(=N/Nc2nncc3ccccc23)c2ccccc2)cc1 | 0.88 nM | – | 4.45 nM |
| Clc1ccc(/C=C/C(=N/Nc2nncc3ccccc23)c2ccccc2)cc1 | 0.55 nM | 4.6 nM | 2.6 nM |
| Cc1ccc(C(/C=C/c2ccc(F)cc2)=N\Nc2nncc3ccccc23)cc1 | 0.7 nM | 6.5 nM | 3.4 nM |
| O=C1CS/C(=N/Nc2nncc3ccccc23)N1c1ccc(Cl)cc1 | 2.7 nM | 42 nM | 42 nM |

— ChEMBL document CHEMBL3870309, “Identification of new potent phthalazine derivatives with VEGFR-2 and EGFR kinase inhibitory activity” (Eur J Med Chem, 2016)
